# In ChEMBL document CHEMBL1130432, “Neuritogenic effect of epolactaene derivatives on human neuroblastoma cells which lack high-affinity nerve growth factor receptors” (1997):
# How the values were obtained:
# Type in all cases: functional, Homo sapiens
# SH-SY5Y [1] = experiment: Ability to induce neurite outgrowth in SH-SY5Y cells measured as percentage of neurite bearing cells/total cells at 29.5 uM; Range is 5-20%
# SH-SY5Y [2] = experiment: Ability to induce neurite outgrowth in SH-SY5Y cells measured as percentage of neurite bearing cells/total cells at 98.8 uM; Range is 5-20%
# SH-SY5Y [3] = experiment: Ability to induce neurite outgrowth in SH-SY5Y cells measured as percentage of neurite bearing cells/total cells at 118.8 uM; Range is 5-20%
# SH-SY5Y [4] = experiment: Ability to induce neurite outgrowth in SH-SY5Y cells measured as percentage of neurite bearing cells/total cells at 17.8 uM; Range is 20-40%
# SH-SY5Y [5] = experiment: Ability to induce neurite outgrowth in SH-SY5Y cells measured as percentage of neurite bearing cells/total cells at 59.4 uM
# SH-SY5Y [6] = experiment: Ability to induce neurite outgrowth in SH-SY5Y cells measured as percentage of neurite bearing cells/total cells at 25.4 uM; Range is 5-20%
smiles,measurement,setting,value
CCCCCCCCCCCCN1C(=O)C(C(C)=O)=C(C)C1(C)O (stereo unspecified),Neurite bearing cells/total cells,SH-SY5Y [1],20%
CCCCCCOC1(C)NC(=O)C(C(C)=O)=C1C (stereo unspecified),Neurite bearing cells/total cells,SH-SY5Y [2],20%
CCCCCCCCCCCCCCCCCCN1C(=O)C(C(C)=O)=C(C)C1(C)O (stereo unspecified),Neurite bearing cells/total cells,SH-SY5Y [3],20%
CCCCCCCCN1C(=O)C(C(C)=O)=C(C)C1(C)O (stereo unspecified),Neurite bearing cells/total cells,SH-SY5Y [4],40%
CCCCCCCCCCCCCCCCCCOC1(C)NC(=O)C(C(C)=O)=C1C (stereo unspecified),Neurite bearing cells/total cells,SH-SY5Y [5],>40%
CCCCCCCCCCCCCCCCN1C(=O)C(C(C)=O)=C(C)C1(C)O (stereo unspecified),Neurite bearing cells/total cells,SH-SY5Y [6],20%
